The record followed here is patent US12479823B2, “Compound for use in retinal diseases” (ZHUHAI UNITED LABORATORIES CO., LTD., priority 2018, dated 2025).

One data set deals with T1, CYP1A2 (Homo sapiens, UniProt P05177).
T1 construct: fused human liver microsomes were selected as a CYP450 enzyme source; from tissue; host or cells: pooled ("fused") human liver microsomes
T1 sequence (P05177 1-516): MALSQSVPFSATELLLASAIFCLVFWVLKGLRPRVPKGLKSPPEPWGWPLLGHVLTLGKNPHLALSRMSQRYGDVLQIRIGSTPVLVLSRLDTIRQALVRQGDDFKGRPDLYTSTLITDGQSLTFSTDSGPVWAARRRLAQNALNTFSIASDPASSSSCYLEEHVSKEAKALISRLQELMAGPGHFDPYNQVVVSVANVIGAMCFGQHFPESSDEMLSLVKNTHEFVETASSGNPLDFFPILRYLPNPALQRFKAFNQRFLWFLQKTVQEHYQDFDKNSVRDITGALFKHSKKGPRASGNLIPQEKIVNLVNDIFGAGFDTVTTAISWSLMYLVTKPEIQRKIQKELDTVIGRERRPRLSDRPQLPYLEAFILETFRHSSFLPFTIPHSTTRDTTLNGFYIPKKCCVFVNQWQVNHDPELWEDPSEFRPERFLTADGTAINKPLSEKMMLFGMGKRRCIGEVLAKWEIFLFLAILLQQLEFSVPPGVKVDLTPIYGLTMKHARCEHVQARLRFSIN
Briefly: Inhibition of human liver microsomal cytochrome P450 CYP1A2. It is filed as in vitro ADME. Particulars: human liver microsomes, probe substrate, NADPH. The source says: (§1) Objective: To study the inhibitory effect of compounds on human liver microsomal cytochrome P450. Experimental procedures: In the study on inhibition of the compounds on the human liver microsomal cytochrome P450 (CYP1A2, CYP2C9, CYP2C19, CYP2D6 and CYP3A4), fused human liver microsomes were selected as a CYP450 enzyme source. […]

Data set [1] is described as follows: Pharmacokinetics in SD rats, intravenous injection for 5 consecutive days. It is filed as in vivo. Conditions: male, Sprague-Dawley (SD), rat, plasma, 20 mg/kg, 20 mg/kg intravenous daily. Here is the method:
Objective: To study 5-day Toxicology of Compounds in SD Rats
Experimental materials: SD rats (male, 200-300 g, 7-9 weeks old, Shanghai Lingchang)
Pharmacokinetic profiles of the compound were tested by intravenous injection in rodents according to the standard protocol. In the study, the candidate compound was prepared as a clear solution, and was administered to SD rats at 20 mg/kg by single intravenous injection for 5 consecutive days. A vehicle for intravenous injection was a 10% hydroxypropyl β-cyclodextrin aqueous solution. Whole blood samples were collected at 0.033, 0.083, 0.25, 0.5, 1, 2, 4, 8, and 24 hours postdose on Day 1 and Day 5 of dosing, centrifuged at 3000 r for 10 min, and separated from supernatant to obtain plasma samples. 15 μL of plasma samples were mixed with 300 μL of acetonitrile precipitated proteins containing an internal standard, and 2 μL of the supernatant was injected by centrifugation. Plasma concentrations were quantified by LC-MS/MS analysis, and pharmacokinetic parameters, such as clearance, half-life, and area under the concentration-time curve, were calculated.

In the next data set the target is T2, CYP3A4 (Homo sapiens, UniProt P08684).
T2 construct: fused human liver microsomes were selected as a CYP450 enzyme source; from tissue; host or cells: pooled ("fused") human liver microsomes
T2 sequence (P08684 whole entry, the tested form may be a part): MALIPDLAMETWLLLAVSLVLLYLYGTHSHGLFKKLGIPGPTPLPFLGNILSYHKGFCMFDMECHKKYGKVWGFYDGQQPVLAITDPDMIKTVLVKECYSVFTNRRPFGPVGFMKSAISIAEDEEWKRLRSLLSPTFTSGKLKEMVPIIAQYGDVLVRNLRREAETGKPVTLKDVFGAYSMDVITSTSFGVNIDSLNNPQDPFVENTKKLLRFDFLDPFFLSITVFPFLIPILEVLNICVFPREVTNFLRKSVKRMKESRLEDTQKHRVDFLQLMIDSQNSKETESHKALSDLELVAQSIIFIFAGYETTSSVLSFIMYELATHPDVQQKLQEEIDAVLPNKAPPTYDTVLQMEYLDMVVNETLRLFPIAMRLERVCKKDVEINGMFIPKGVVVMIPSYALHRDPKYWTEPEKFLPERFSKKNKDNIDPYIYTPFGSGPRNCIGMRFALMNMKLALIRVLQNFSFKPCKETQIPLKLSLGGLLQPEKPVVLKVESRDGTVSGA
Briefly: Inhibition of human liver microsomal cytochrome P450 CYP3A4. Conditions: human liver microsomes, two probe substrates, NADPH. It is filed as in vitro ADME.
Excerpt: as §1

The next data set has as its target T3, CYP2D6 (Homo sapiens, UniProt P10635).
T3 construct: fused human liver microsomes were selected as a CYP450 enzyme source; from tissue; host or cells: pooled ("fused") human liver microsomes
Briefly: Inhibition of human liver microsomal cytochrome P450 CYP2D6. It is filed as in vitro ADME. Conditions: human liver microsomes, probe substrate, NADPH.
Excerpt: as §1
(Liver microsomes are a subcellular fraction often used to study metabolism.)

Data set [2] in a line: Pharmacokinetics in Beagle dogs, single intravenous injection. It is filed as in vivo. Conditions: male, dog, plasma, 1 mg/kg single intravenous injection. Here is the method:
Objective: To Study Pharmacokinetics of the Compound in Beagle Dogs
Experimental Material: Beagle Dogs (male, 8-11 kg, greater than or equal to 6 months, Marshall)
(§2) Pharmacokinetic profiles of the compound were tested by intravenous administration in rodents according to the standard protocol. In the study, the candidate compound was prepared as a clear solution, and was administered to Beagle dogs at 1 mg/kg by single intravenous injection. A vehicle for intravenous injection was a 10% hydroxypropyl ß-cyclodextrin aqueous solution. Whole blood samples were collected at 0.033, 0.083, 0.25, 0.5, 1, 2, 4, 8, 12, and 24 hours, respectively, centrifuged at 3000 r for 10 min, and separated from supernatant to obtain plasma samples. 20 μL of plasma samples were mixed with 400 μL of acetonitrile precipitated proteins containing an internal standard, and 2 μL of the supernatant was injected by centrifugation. Plasma concentrations were quantified by LC-MS/MS analysis, and pharmacokinetic parameters, such as clearance, half-life, and area under the concentration-time curve, etc. were calculated.

The target of the next data set is T4, CYP2C19 (Homo sapiens, UniProt P33261).
T4 construct: fused human liver microsomes were selected as a CYP450 enzyme source; from tissue; host or cells: pooled ("fused") human liver microsomes
T4 sequence (P33261 whole entry, the tested form may be a part): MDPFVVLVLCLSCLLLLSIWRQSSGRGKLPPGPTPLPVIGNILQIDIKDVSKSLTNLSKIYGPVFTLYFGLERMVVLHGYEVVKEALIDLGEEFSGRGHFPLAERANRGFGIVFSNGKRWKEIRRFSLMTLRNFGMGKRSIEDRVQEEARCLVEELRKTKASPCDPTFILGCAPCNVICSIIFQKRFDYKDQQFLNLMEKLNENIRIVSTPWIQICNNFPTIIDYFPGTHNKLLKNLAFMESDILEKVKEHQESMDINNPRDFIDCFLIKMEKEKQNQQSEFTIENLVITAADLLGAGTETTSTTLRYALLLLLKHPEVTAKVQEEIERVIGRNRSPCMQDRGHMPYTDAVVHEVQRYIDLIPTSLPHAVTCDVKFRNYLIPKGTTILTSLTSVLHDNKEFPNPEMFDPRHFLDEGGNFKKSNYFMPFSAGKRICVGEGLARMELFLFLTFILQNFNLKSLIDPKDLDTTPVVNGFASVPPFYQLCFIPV
Briefly: Inhibition of human liver microsomal cytochrome P450 CYP2C19. Conditions: human liver microsomes, probe substrate, NADPH. It counts as in vitro ADME.
Excerpt: as §1

For a further data set, the target named is T5, CYP2C9 (Homo sapiens, UniProt P11712).
T5 construct: fused human liver microsomes were selected as a CYP450 enzyme source; from tissue; host or cells: pooled ("fused") human liver microsomes
T5 sequence (P11712 whole entry, the tested form may be a part): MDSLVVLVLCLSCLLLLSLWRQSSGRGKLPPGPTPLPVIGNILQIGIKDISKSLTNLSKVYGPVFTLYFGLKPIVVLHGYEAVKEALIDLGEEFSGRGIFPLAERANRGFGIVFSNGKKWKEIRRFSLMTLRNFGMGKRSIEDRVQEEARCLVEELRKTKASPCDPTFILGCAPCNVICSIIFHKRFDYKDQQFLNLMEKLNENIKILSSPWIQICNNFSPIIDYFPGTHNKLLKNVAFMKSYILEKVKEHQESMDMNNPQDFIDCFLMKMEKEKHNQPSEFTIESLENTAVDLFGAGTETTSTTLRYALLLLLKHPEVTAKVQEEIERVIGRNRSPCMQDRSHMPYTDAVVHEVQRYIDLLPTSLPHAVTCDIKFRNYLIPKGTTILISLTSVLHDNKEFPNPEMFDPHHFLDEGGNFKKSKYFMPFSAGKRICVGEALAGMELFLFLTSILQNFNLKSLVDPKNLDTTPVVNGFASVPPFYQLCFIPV
Briefly: Inhibition of human liver microsomal cytochrome P450 CYP2C9. It counts as in vitro ADME. Particulars: human liver microsomes, probe substrate, NADPH.
Excerpt: as §1

The nature of data set [3]: Pharmacokinetics in cynomolgus monkeys, single intravenous injection. It is filed as in vivo. Conditions: male, cynomolgus monkey, plasma, 1 mg/kg single intravenous injection. As to the method: Objective: To Study Pharmacokinetics of the Compound in Cynomolgus Monkeys
Experimental material: Cynomolgus Monkeys (male, 2.5-4 kg, greater than or equal to 2 years, Jingang Biotech)
as §2, with “monkeys” for “rodents”, “cynomolgus monkeys” for “Beagle dogs”

Setting [4] is: read-out: Area under the concentration-time curve AUC.
[5] abbreviates: read-out: Half-time T1/2 (converted).

SMILES strings stand for the structures.

T3 sequence (P10635 whole entry, the tested form may be a part): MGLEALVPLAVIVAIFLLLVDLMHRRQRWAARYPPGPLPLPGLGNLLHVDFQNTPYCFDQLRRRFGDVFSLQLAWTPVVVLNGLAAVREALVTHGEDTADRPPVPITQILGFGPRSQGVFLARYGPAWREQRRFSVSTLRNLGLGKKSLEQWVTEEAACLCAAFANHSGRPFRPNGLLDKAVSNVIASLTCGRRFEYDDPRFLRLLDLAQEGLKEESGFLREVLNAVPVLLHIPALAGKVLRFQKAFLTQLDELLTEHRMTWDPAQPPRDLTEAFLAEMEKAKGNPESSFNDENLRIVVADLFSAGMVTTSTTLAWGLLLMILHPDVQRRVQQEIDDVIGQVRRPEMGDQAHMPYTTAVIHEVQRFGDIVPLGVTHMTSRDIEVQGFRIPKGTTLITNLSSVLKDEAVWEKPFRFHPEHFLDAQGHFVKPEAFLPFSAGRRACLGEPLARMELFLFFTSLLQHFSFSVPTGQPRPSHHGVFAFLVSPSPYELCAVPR

Broadly, the IC50 is the concentration that inhibits the measured activity by half. In general, clearance refers to the rate of elimination divided by the concentration. On to `CC(C)(O)c1ccc(-c2cnc(C(C)(C)O)c(N)c2)cc1N` [Compound 3], for which the IC50 at CYP1A2, against CYP3A4, at CYP2D6, at CYP2C19 and against CYP2C9 was above 50 µM in each case. Besides, the clearance was found to be 7.11 mL/min/kg in data set [1] (Day 1), 9.04 mL/min/kg in data set [1] (Day 5), 15 mL/min/kg in data set [2] and 6.2 mL/min/kg in data set [3]. Moreover, the AUC came out at 156 µM·h in data set [1] (Day 1, read-out: Area under the concentration-time curve AUC); 123 µM·h in data set [1] (Day 5, read-out: Area under the concentration-time curve AUC); 3.71 µM·h in data set [2] (setting [4]); 9.16 µM·h in data set [3] (setting [4]). Besides, the half-life in data set [1] (Day 1, read-out: Half-time T1/2 (converted)) is 147 min; in data set [1] (Day 5, read-out: Half-time T1/2 (converted)) it was 163 min; in data set [2] (setting [5]), 130 min; in data set [3] (setting [5]), 229 min.
